Assay results from patent publication US8790675B2, “Biocide compositions comprising carbamates” (priority 2009, dated 2014).

Assay: Solubility of biocides in solvents at 25° C.
Details: for Solubility of biocides: Tebucanozole: Tebucanozole dissolved in the solvent, 25° C.
Protocol: Solubility of two fungicides, one herbicide and two insecticides in different dialkyl amides at 25° C. was tested.

Structure (SMILES): CCCCNC(=O)OCCO [Example 7]
- Solubility of biocides: Tebucanozole: 20 % b.w.

Structure (SMILES): CN(C)C(=O)OCCO [Example 5]
- able to dissolve or disperse a wide range of biocides better than solvents known from the state of the art (wide range of biocides, versus state-of-the-art solvents): 20%

Structure (SMILES): CCCNC(=O)OCCO [Example 8]
- Solubility of biocides: Tebucanozole: 23 % b.w.
